ChEMBL document CHEMBL4033648, “Eco-friendly synthesis of novel cyanopyridine derivatives and their anticancer and PIM-1 kinase inhibitory activities” (Eur J Med Chem, 2017)

Columns and labels:
HepG2 [1] = assay: Cytotoxicity against human HepG2 cells; type: functional, cell-based
HCT-116 = assay: Cytotoxicity against human HCT116 cells; type: functional, cell-based
MCF7 = assay: Cytotoxicity against human MCF7 cells; type: functional, cell-based
[2] = biological target: Serine/threonine-protein kinase pim-1 (Homo sapiens, UniProt P11309); assay: Inhibition of human PIM1 measured after 5 mins by ELISA relative to control
HepG2 [3] = assay: Induction of apoptosis in human HepG2 cells assessed as increase in Bax level by qRT-PCR analysis relative to control; type: functional
HepG2 [4] = assay: Induction of apoptosis in human HepG2 cells assessed as upregulation of caspase 3 level measured up to 30 mins by immunoassay relative to control; type: functional
HepG2 [5] = assay: Induction of apoptosis in human HepG2 cells assessed as decrease in Bcl2 level by qRT-PCR analysis relative to control; type: functional
HepG2 [6] = assay: Induction of apoptosis in human HepG2 cells assessed as increase in Bax/Bcl2 ratio by qRT-PCR analysis relative to control; type: functional

Row | Structure (SMILES) | IC50 (HepG2 [1]) [µM] | IC50 (HCT-116) [µM] | IC50 (MCF7) [µM] | IC50 [2] [µM] | inhibition [2] [%] | fold change (FC) (HepG2 [3]) | fold change (FC) (HepG2 [4]) | fold change (FC) (HepG2 [5]) | fold change (FC) (HepG2 [6])
1 | COc1ccc(-c2cc(-c3cc4c(ccc5ccccc54)oc3=O)[nH]c(=O)c2C#N)cc1 | 36.3 | 24.9 | 36.7 | 10.6 | 83.1 |  |  |  | 
2 | N#Cc1c(-c2cccc3ccccc23)cc(-c2cccs2)[nH]c1=O | 35.9 | 28.6 | 27.1 | 4.8 | 77.8 |  |  |  | 
3 | N#Cc1c(-c2cccc3ccccc23)cc(-c2cc3c(ccc4ccccc43)oc2=O)[nH]c1=O | 15.3 | 25.9 | 25.2 | 1.47 | 79.5 |  |  |  | 
4 | N#Cc1c(-c2cccs2)cc(-c2cccs2)nc1O | 41.6 | 187 | 249 | 3.16 | 84.8 |  |  |  | 
5 | N#Cc1c(-c2cccc3ccccc23)cc(-c2ccc3ccccc3c2)nc1N | 11.9 | 20.5 | 19.2 | 1.16 | 86.5 |  |  |  | 
6 | O=c1[nH]cc(F)c(=O)[nH]1 [FLUOROURACIL] | 8.1 |  | 7.9 |  |  |  |  |  | 
7 | COc1ccc(-c2cc(-c3cccs3)nc(N)c2C#N)cc1 | 104 | 122 | 88.3 |  | 76.9 |  |  |  | 
8 | COc1ccc(-c2cc(-c3cccs3)[nH]c(=O)c2C#N)cc1 | 15.5 | 28.7 | 21.9 | 6.7 | 73 |  |  |  | 
9 | N#Cc1c(-c2cccs2)cc(-c2cccs2)nc1N | 28.3 | 91.2 | 72.1 | 7.52 | 85 |  |  |  | 
10 | COc1ccc(-c2cc(-c3cc4c(ccc5ccccc54)oc3=O)nc(N)c2C#N)cc1 | 300 |  |  |  | 26 |  |  |  | 
11 | N#Cc1c(-c2cccc3ccccc23)cc(-c2cc3c(ccc4ccccc43)oc2=O)nc1N | 45.8 | 30.6 | 80.7 | 25.5 | 61.5 |  |  |  | 
12 | N#Cc1c(-c2cccs2)cc(-c2cc3c(ccc4ccccc43)oc2=O)nc1N | 35.7 | 80 | 59.1 | 19.3 | 69.2 |  |  |  | 
13 | COc1cc2c(c(OC)c1OC)-c1ccc(OC)c(=O)cc1[C@@H](NC(C)=O)CC2 [COLCHICINE] |  |  |  | 4.3 | 65.1 |  |  |  | 
14 | N#Cc1c(-c2cccc3ccccc23)cc(-c2ccc3ccccc3c2)[nH]c1=O | 220 | 228 | 236 | 10 | 81 |  |  |  | 
15 | N#Cc1c(-c2cccs2)cc(-c2cc3c(ccc4ccccc43)oc2=O)[nH]c1=O | 30.5 | 36.2 | 20.6 | 0.94 | 89 | 585 | 5.6 | 38.7 | 22704
16 | N#Cc1c(-c2cccc3ccccc23)cc(-c2cccs2)nc1N | 181 | 66.7 | 38.8 |  | 58.5 |  |  |  | 
